Assays:
[1] = tested on: A2058 human melanoma cells; test: LPA1 chemotaxis assay; type: cell-based; conditions: 100 nM LPA, read-out: IC50, inhibition of LPA-driven chemotaxis
Procedure: Chemotaxis of the A2058 human melanoma cells was measured using the Neuroprobe ChemoTx® System plates (8 μm pore size, 5.7 mm diameter sites). The filter sites were coated with 0.001% fibronectin (Sigma) in 20 mM Hepes, pH 7.4 and allowed to dry. A2058 cells were serum-starved for 24 hours, then harvested with Cell Stripper and resuspended in DMEM containing 0.1% fatty-acid-free bovine serum albumin (BSA) to a concentration of 1×10^6/ml. Cells were mixed with an equal volume of test compound (2×) in DMEM containing 0.1% fatty-acid-free BSA and incubated at 37° C. for 15 minutes. LPA (100 nM in DMEM containing 0.1% fatty-acid-free BSA) or vehicle was added to each well of the lower chamber and 50 μl of the cell suspension/test compound mix was applied to the upper portion of the ChemoTx plate. Plates were incubated at 37° C. for three hours and then the cells removed from the upper portion by rinsing with PBS and scraping. The filter was dried then stained with HEMA 3 Staining System (Fisher Scientific). The absorbance of the filter was read at 590 nm and IC50s were determined using Symyx Assay Explorer.

human LPA3 receptor = target: T1, human LPA3 receptor (Homo sapiens, UniProt Q9UBY5); test: LPA3 calcium flux assay (CHO cells stably expressing human LPA3); type: cell-based; conditions: read-out: LPA3 Binding IC50
T1 construct: The full-length cDNA fragment for human LPA3 was obtained by PCR from the vector; expressed in transfected cells
T1 sequence (Q9UBY5 1-353): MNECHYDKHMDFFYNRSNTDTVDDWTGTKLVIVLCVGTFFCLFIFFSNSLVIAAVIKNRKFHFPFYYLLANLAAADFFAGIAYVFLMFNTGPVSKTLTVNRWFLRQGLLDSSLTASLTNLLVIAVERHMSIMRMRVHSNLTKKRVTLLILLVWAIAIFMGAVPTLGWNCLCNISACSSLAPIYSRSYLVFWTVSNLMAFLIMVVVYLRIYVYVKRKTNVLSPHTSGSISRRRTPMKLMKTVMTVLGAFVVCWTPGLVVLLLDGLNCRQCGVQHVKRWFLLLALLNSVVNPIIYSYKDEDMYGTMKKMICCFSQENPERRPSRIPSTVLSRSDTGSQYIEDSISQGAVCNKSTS
Procedure: A vector containing the human LPA3 receptor cDNA was obtained from the Missouri S&T cDNA Resource Center (www.cdna.org). The full-length cDNA fragment for human LPA3 was obtained by PCR from the vector. The nucleotide sequence of the cloned human LPA3 was determined by sequencing and confirmed to be identical to the published human LPA3 sequence (NCBI accession number NM_012152). The cDNA was cloned into the pCDNA5/FRT expression plasmid and transfected in CHO cells using lipofectamine 2000 (Invitrogen Corp., USA). Clones stably expressing human LPA3 were selected using hygromycin and identified as cells that show Ca-influx in response to LPA.
(§1) Human LPA1 or LPA3 expressing CHO cells are seeded at 20,000-45,000 cells per well in a 96-well poly-D-lysine coated plate one or two days before the assay. Prior to the assay, the cells are washed once with PBS and then cultured in serum-free media overnight. On the day of the assay, a calcium indicator dye (Calcium 4, Molecular Devices) in assay buffer (HBSS with Ca^2+ and Mg^2+ and containing 20 mM Hepes and 0.3% fatty-acid free human serum albumin) is added to each well and incubation continued for 1 hour at 37° C. 10 μl of test compounds in 2.5% DMSO are added to the cells and incubation continued at room temperature for 30 minutes. Cells are the stimulated by the addition of 10 nM LPA and intracellular Ca^2+ measured using the Flexstation 3 (Molecular Devices). IC50s are determined using Graphpad prism analysis of drug titration curves.

human LPA1 receptor = target: T2, human LPA1 receptor (Homo sapiens, UniProt Q92633); test: LPA1 binding (GTPγS binding assay, membranes of CHO cells expressing human LPA1); type: biochemical; conditions: 900 nM LPA, [35S]-GTPγS
T2 construct: the full-length cDNA for human LPA1 was obtained by PCR of the reverse transcription reaction; expressed in transfected cells
Procedure: A 1.1 kb cDNA encoding the human LPA1 receptor was cloned from human lung. Human lung RNA (Clontech Laboratories, Inc. USA) was reverse transcribed using the RETROscript kit (Ambion, Inc.) and the full-length cDNA for human LPA1 was obtained by PCR of the reverse transcription reaction. The nucleotide sequence of the cloned human LPA1 was determined by sequencing and confirmed to be identical to the published human LPA1 sequence (An et al. Biochem. Biophys. Res. Commun. 231:619 (1997). The cDNA was cloned into the pCDNA5/FRT expression plasmid and transfected in CHO cells using lipofectamine 2000 (Invitrogen Corp., USA). Clones stably expressing human LPA1 were selected using hygromycin and identified as cells that show Ca-influx in response to LPA.
The ability of a compound to inhibit binding of GTP to LPA1 is assessed via a membrane GTPγS assay. CHO cells stably expressing the recombinant human LPA1 receptor are resuspended in 10 mM Hepes, 7.4 containing 1 mM DTT, lysed and centrifuged at 75,000×g to pellet the membranes. The membranes are resuspended in 10 mM Hepes, 7.4 containing 1 mM DTT and 10% glycerol. Membranes (˜25 μg per well) are incubated in 96-well plates with 0.1 nM [^35S]-GTPγS, 900 nM LPA, 5 μM GDP, and test compound in Assay Buffer (50 mM Hepes, pH 7.4, 100 mM NaCl, 10 mM MgCl2, 50 μg/ml saponin and 0.2% fatty-acid free human serum albumin) for 30 minutes at 30° C. The reactions are terminated by rapid filtration through Whatman GF/B glass fibre filter plates. The filter plates are washed 3 times with 1 ml cold Wash Buffer (50 mM Hepes, 7.5, 100 mM NaCl and 10 mM MgCl2) and dried. Scintillant is then added to the plates and the radioactivity retained on the filters is determined on a Packard TopCount (Perkin Elmer). Specific binding is determined as total radioactive binding minus non-specific binding in the absence of the ligand (900 nM LPA). IC50s were determined using Graphpad prism analysis of drug titration curves.

human LPA2 receptor = target: T3, human LPA2 receptor (Homo sapiens, UniProt Q9HBW0); test: LPA2 calcium flux assay (B103 cells transiently expressing human LPA2); type: cell-based; conditions: read-out: LPA2 Binding IC50
T3 construct: The full-length cDNA fragment for human LPA2 was obtained by PCR from the vector; expressed in transfected cells; host or cells: B103 cells (pCDNA3.1, transient, lipofectamine 2000)
Procedure: A vector containing the human LPA2 receptor cDNA was obtained from the Missouri S&T cDNA Resource Center (www.cdna.org). The full-length cDNA fragment for human LPA2 was obtained by PCR from the vector. The nucleotide sequence of the cloned human LPA2 was determined by sequencing and confirmed to be identical to the published human LPA2 sequence (NCBI accession number NM_004720). The cDNA was cloned into the pCDNA3.1 expression plasmid and transfected into B103 cells (Invitrogen Corp., USA) by seeding cells in a 96-well poly-D-lysine coated plate at 30,000-35,000 cells per well together with 0.2 μl lipofectamine 2000 and 0.2 μg of the LPA2 expression vector. Cells were cultured overnight in complete media before being assayed for LPA-induced Ca-influx.
as §1, with “Following an overnight culture with lipofectamine 2000 and” for “Human LPA1 or LPA3 expressing CHO cells are seeded at 20,000-45,000 cells per well in a 96-well poly-D-lysine coated plate one or two days before”, “LPA2 expression vector,” for “assay. Prior to”, “B103” for “assay, the”, “PBS” for “PBS and”, “serum starved for 4 hours. A” for “cultured in serum-free media overnight. On the day of the assay, a”

T3 sequence (Q9HBW0 whole entry, the tested form may be a part): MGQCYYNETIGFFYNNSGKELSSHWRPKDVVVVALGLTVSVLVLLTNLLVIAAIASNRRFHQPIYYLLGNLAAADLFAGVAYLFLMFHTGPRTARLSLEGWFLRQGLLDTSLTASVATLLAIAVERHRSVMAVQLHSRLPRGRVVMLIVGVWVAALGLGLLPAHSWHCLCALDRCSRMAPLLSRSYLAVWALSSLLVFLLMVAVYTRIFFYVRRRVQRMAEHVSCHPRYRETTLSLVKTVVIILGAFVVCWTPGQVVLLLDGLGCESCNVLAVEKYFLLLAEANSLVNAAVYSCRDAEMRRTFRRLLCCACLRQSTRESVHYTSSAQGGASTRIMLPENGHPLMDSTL
T2 sequence (Q92633 whole entry): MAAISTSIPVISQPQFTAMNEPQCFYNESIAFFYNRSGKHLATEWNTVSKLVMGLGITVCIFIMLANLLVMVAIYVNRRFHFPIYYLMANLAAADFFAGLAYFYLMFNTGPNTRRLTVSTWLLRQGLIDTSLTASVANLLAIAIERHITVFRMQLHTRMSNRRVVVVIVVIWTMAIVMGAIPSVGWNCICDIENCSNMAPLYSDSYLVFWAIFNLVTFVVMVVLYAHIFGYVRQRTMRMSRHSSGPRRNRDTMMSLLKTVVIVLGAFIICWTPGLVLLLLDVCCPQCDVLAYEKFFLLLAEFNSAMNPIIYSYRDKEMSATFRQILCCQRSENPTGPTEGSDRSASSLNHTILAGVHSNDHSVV

## Cc1ccccc1-c1cccc(Nc2c(C)noc2-c2ccc(-c3ccc(C4(C(=O)O)CC4)cc3)cc2)n1 [Compound 1, 1-(4′-{3-Methyl-4-[6-(2-methyl-phenyl)-pyridin-2-ylamino]-isoxazol-5-yl}-biphenyl-4-yl)-cyclopropanecarboxylic acid]
[1]
  IC50: < 500 nM
Human LPA3 receptor
  IC50: < 300 nM
Human LPA1 receptor
  IC50: < 300 nM
Human LPA2 receptor
  IC50: < 300 nM

## Cc1cccc(-c2cccc(Nc3c(C)noc3-c3ccc(-c4ccc(C5(C(=O)O)CC5)cc4)cc3)n2)c1 [Compound 2, 1-(4′-{3-Methyl-4-[6-(3-methyl-phenyl)-pyridin-2-ylamino]-isoxazol-5-yl}-biphenyl-4-yl)-cyclopropanecarboxylic acid]
[1]
  IC50: < 500 nM
Human LPA3 receptor
  IC50: < 300 nM
Human LPA1 receptor
  IC50: < 300 nM
Human LPA2 receptor
  IC50: < 300 nM

## Cc1ccc(-c2cccc(Nc3c(C)noc3-c3ccc(-c4ccc(C5(C(=O)O)CC5)cc4)cc3)n2)cc1 [Compound 3, 1-(4′-{3-Methyl-4-[6-(4-methyl-phenyl)-pyridin-2-ylamino]-isoxazol-5-yl}-biphenyl-4-yl)-cyclopropanecarboxylic acid]
[1]
  IC50: < 500 nM
Human LPA3 receptor
  IC50: < 300 nM
Human LPA1 receptor
  IC50: < 300 nM
Human LPA2 receptor
  IC50: < 300 nM

## Cc1ccccc1-c1cncc(Nc2c(C)noc2-c2ccc(-c3ccc(C4(C(=O)O)CC4)cc3)cc2)c1 [Compound 4, 1-(4′-{3-Methyl-4-[5-(2-methyl-phenyl)-pyridin-3-ylamino]-isoxazol-5-yl}-biphenyl-4-yl)-cyclopropanecarboxylic acid]
[1]
  IC50: < 500 nM
Human LPA3 receptor
  IC50: < 300 nM
Human LPA1 receptor
  IC50: < 300 nM
Human LPA2 receptor
  IC50: < 300 nM

## Cc1cccc(-c2cncc(Nc3c(C)noc3-c3ccc(-c4ccc(C5(C(=O)O)CC5)cc4)cc3)c2)c1 [Compound 5, 1-(4′-{3-Methyl-4-[5-(3-methyl-phenyl)-pyridin-3-ylamino]-isoxazol-5-yl}-biphenyl-4-yl)-cyclopropanecarboxylic acid]
[1]
  IC50: < 500 nM
Human LPA3 receptor
  IC50: < 300 nM
Human LPA1 receptor
  IC50: < 300 nM
Human LPA2 receptor
  IC50: < 300 nM

## Cc1ccc(-c2cncc(Nc3c(C)noc3-c3ccc(-c4ccc(C5(C(=O)O)CC5)cc4)cc3)c2)cc1 [Compound 6, 1-(4′-{3-Methyl-4-[5-(4-methyl-phenyl)-pyridin-3-ylamino]-isoxazol-5-yl}-biphenyl-4-yl)-cyclopropanecarboxylic acid]
[1]
  IC50: < 500 nM
Human LPA3 receptor
  IC50: < 300 nM
Human LPA1 receptor
  IC50: < 300 nM
Human LPA2 receptor
  IC50: < 300 nM

## Cc1cccc(-c2cccc(Nc3c(C)noc3-c3ccc(-c4ccc(C5(C(=O)NS(C)(=O)=O)CC5)cc4)cc3)n2)c1 [Compound 8, N-(1-{4′-[3-Methyl-4-(6-(3-methyl-phenyl)-pyridin-2-ylamino)-isoxazol-5-yl]-biphenyl-4-yl}-cyclopropanecarbonyl)-methanesulfonamide]
Human LPA3 receptor
  IC50: < 300 nM
Human LPA1 receptor
  IC50: < 300 nM
Human LPA2 receptor
  IC50: < 300 nM

## Cc1cccc(-c2cncc(Nc3c(C)noc3-c3ccc(-c4ccc(C5(C(=O)NS(C)(=O)=O)CC5)cc4)cc3)c2)c1 [Compound 11, N-(1-{4′-[3-Methyl-4-(5-(3-methyl-phenyl)-pyridin-3-ylamino)-isoxazol-5-yl]-biphenyl-4-yl}-cyclopropanecarbonyl)-methanesulfonamide]
Human LPA3 receptor
  IC50: < 300 nM
Human LPA1 receptor
  IC50: < 300 nM
Human LPA2 receptor
  IC50: < 300 nM

Source: patent publication US8541587B2, “Lysophosphatidic acid receptor antagonists” (Amira Pharmaceuticals, Inc., priority 2011, dated 2013)
